Assay results published in ChEMBL document CHEMBL4033723, “Succinamide derivatives of melampomagnolide B and their anti-cancer activities” (2017).

Legend:
Assay type in all cases: functional
BT-549 = assay: Growth inhibition of human BT549 cells after 48 hrs by sulforhodamine B assay; settings: BT-549, 48 h
SF-539 = assay: Growth inhibition of human SF539 cells after 48 hrs by sulforhodamine B assay; settings: SF-539, 48 h
SR = assay: Growth inhibition of human SR cells after 48 hrs by sulforhodamine B assay
HOP-92 = assay: Growth inhibition of human HOP92 cells after 48 hrs by sulforhodamine B assay; settings: HOP-92, 48 h
CCRF-CEM = assay: Growth inhibition of human CCRF-CEM cells after 48 hrs by sulforhodamine B assay
OVCAR-4 = assay: Growth inhibition of human OVCAR4 cells after 48 hrs by sulforhodamine B assay; settings: OVCAR-4, 48 h
HCT-116 = assay: Growth inhibition of human HCT116 cells after 48 hrs by sulforhodamine B assay; settings: HCT-116, 48 h
SN12C = assay: Growth inhibition of human SN12C cells after 48 hrs by sulforhodamine B assay
UO-31 = assay: Growth inhibition of human UO31 cells after 48 hrs by sulforhodamine B assay; settings: UO-31, 48 h
MDA-MB-435 = assay: Growth inhibition of human MDA-MB-435 cells after 48 hrs by sulforhodamine B assay; settings: MDA-MB-435, 48 h
LOX IMVI = assay: Growth inhibition of human LOXIMVI cells after 48 hrs by sulforhodamine B assay
A498 = assay: Growth inhibition of human A498 cells after 48 hrs by sulforhodamine B assay; settings: A498, 48 h
RXF 393 = assay: Growth inhibition of human RXF393 cells after 48 hrs by sulforhodamine B assay; settings: RXF 393, 48 h
MCF7 = assay: Growth inhibition of human MCF7 cells after 48 hrs by sulforhodamine B assay; settings: MCF7, 48 h
T47D = assay: Growth inhibition of human T47D cells after 48 hrs by sulforhodamine B assay
SNB-75 = assay: Growth inhibition of human SNB75 cells after 48 hrs by sulforhodamine B assay; settings: SNB-75, 48 h
DU-145 = assay: Growth inhibition of human DU145 cells after 48 hrs by sulforhodamine B assay; settings: DU-145, 48 h
[1] = Growth inhibition of human M9-ENL1 cells after 24 hrs by trypan blue assay; settings: M9-ENL1, 24 h
UACC-62 = assay: Growth inhibition of human UACC62 cells after 48 hrs by sulforhodamine B assay; settings: UACC-62, 48 h
NCI-H23 = assay: Growth inhibition of human NCI-H23 cells after 48 hrs by sulforhodamine B assay; settings: NCI-H23, 48 h
SK-MEL-28 = assay: Growth inhibition of human SK-MEL-28 cells after 48 hrs by sulforhodamine B assay; settings: SK-MEL-28, 48 h
KM12 = assay: Growth inhibition of human KM12 cells after 48 hrs by sulforhodamine B assay; settings: KM12, 48 h
M14 = assay: Growth inhibition of human M14 cells after 48 hrs by sulforhodamine B assay; settings: M14, 48 h
OVCAR-5 = assay: Growth inhibition of human OVCAR5 cells after 48 hrs by sulforhodamine B assay; settings: OVCAR-5, 48 h
K562 = assay: Growth inhibition of human K562 cells after 48 hrs by sulforhodamine B assay; settings: K562, 48 h
Hs-578T = assay: Growth inhibition of human Hs 578T cells after 48 hrs by sulforhodamine B assay
U-251 = assay: Growth inhibition of human U251 cells after 48 hrs by sulforhodamine B assay; settings: U-251, 48 h
MDA-MB-231 = assay: Growth inhibition of human MDA-MB-231 cells after 48 hrs by sulforhodamine B assay; settings: MDA-MB-231, 48 h
OVCAR-8 = assay: Growth inhibition of human OVCAR8 cells after 48 hrs by sulforhodamine B assay; settings: OVCAR-8, 48 h
SF-295 = assay: Growth inhibition of human SF295 cells after 48 hrs by sulforhodamine B assay; settings: SF-295, 48 h
ACHN = assay: Growth inhibition of human ACHN cells after 48 hrs by sulforhodamine B assay
NCI-H522 = assay: Growth inhibition of human NCI-H522 cells after 48 hrs by sulforhodamine B assay; settings: NCI-H522, 48 h
SNB-19 = assay: Growth inhibition of human SNB19 cells after 48 hrs by sulforhodamine B assay; settings: SNB-19, 48 h
NCI-H226 = assay: Growth inhibition of human NCI-H226 cells after 48 hrs by sulforhodamine B assay; settings: NCI-H226, 48 h
SK-OV-3 = assay: Growth inhibition of human SKOV3 cells after 48 hrs by sulforhodamine B assay; settings: SK-OV-3, 48 h
SK-MEL-2 = assay: Growth inhibition of human SK-MEL-2 cells after 48 hrs by sulforhodamine B assay; settings: SK-MEL-2, 48 h
COLO 205 = assay: Growth inhibition of human COLO205 cells after 48 hrs by sulforhodamine B assay; settings: COLO 205, 48 h
NCI-H460 = assay: Growth inhibition of human NCI-H460 cells after 48 hrs by sulforhodamine B assay; settings: NCI-H460, 48 h
TK-10 = assay: Growth inhibition of human TK10 cells after 48 hrs by sulforhodamine B assay; settings: TK-10, 48 h
MOLT-4 = assay: Growth inhibition of human MOLT4 cells after 48 hrs by sulforhodamine B assay; settings: MOLT-4, 48 h
NCI/ADR-RES = assay: Growth inhibition of human NCI-ADR-RES cells after 48 hrs by sulforhodamine B assay
HCT-15 = assay: Growth inhibition of human HCT15 cells after 48 hrs by sulforhodamine B assay; settings: HCT-15, 48 h
HCC 2998 = assay: Growth inhibition of human HCC2998 cells after 48 hrs by sulforhodamine B assay; settings: HCC 2998, 48 h
HL-60(TB) = assay: Growth inhibition of human HL-60(TB) cells after 48 hrs by sulforhodamine B assay; settings: HL-60, 48 h
786-0 = assay: Growth inhibition of human 786-0 cells after 48 hrs by sulforhodamine B assay; settings: 786-0, 48 h
SK-MEL-5 = assay: Growth inhibition of human SK-MEL-5 cells after 48 hrs by sulforhodamine B assay; settings: SK-MEL-5, 48 h
PC-3 = assay: Growth inhibition of human PC3 cells after 48 hrs by sulforhodamine B assay; settings: PC-3, 48 h
Malme-3M = assay: Growth inhibition of human MALME-3M cells after 48 hrs by sulforhodamine B assay
SW-620 = assay: Growth inhibition of human SW620 cells after 48 hrs by sulforhodamine B assay; settings: SW-620, 48 h
CAKI-1 = assay: Growth inhibition of human Caki1 cells after 48 hrs by sulforhodamine B assay; settings: CAKI-1, 48 h
OVCAR-3 = assay: Growth inhibition of human OVCAR3 cells after 48 hrs by sulforhodamine B assay; settings: OVCAR-3, 48 h
UACC-257 = assay: Growth inhibition of human UACC257 cells after 48 hrs by sulforhodamine B assay; settings: UACC-257, 48 h
A549 = assay: Growth inhibition of human A549/ATCC cells after 48 hrs by sulforhodamine B assay; settings: A549, 48 h
[2] = Induction of apoptosis in human M9-ENL1 cells assessed as cell death after 24 hrs by Annexin V/PI or 7-AAD staining based flow cytometry; settings: M9-ENL1, 24 h, read-out: LC50 (the source's name)
HT-29 = assay: Growth inhibition of human HT-29 cells after 48 hrs by sulforhodamine B assay; settings: HT-29, 48 h
NCI-H322M = assay: Growth inhibition of human NCI-H322M cells after 48 hrs by sulforhodamine B assay
MDA-MB-468 = assay: Growth inhibition of human MDA-MB-468 cells after 48 hrs by sulforhodamine B assay; settings: MDA-MB-468, 48 h
SF-268 = assay: Growth inhibition of human SF268 cells after 48 hrs by sulforhodamine B assay; settings: SF-268, 48 h
[3] = Potency index, ratio of compound effect to PTL effect for cytotoxicity against human M9-ENL1 cells
RPMI-8226 = assay: Growth inhibition of human RPMI8226 cells after 48 hrs by sulforhodamine B assay; settings: RPMI-8226, 48 h

C=C1C(=O)O[C@H]2[C@H]1CC/C(COC(=O)CCC(=O)N1CCC(C)CC1)=C\CC[C@@]1(C)O[C@@H]21
GI50 (BT-549): 1.82 µM | GI50 (SF-539): 2.35 µM | GI50 (SR): 2.72 µM | GI50 (HOP-92): 2.05 µM | GI50 (CCRF-CEM): 1.4 µM | GI50 (OVCAR-4): 2.64 µM | GI50 (HCT-116): 1.69 µM | GI50 (SN12C): 4.8 µM | GI50 (UO-31): 3.56 µM | GI50 (MDA-MB-435): 4.84 µM | GI50 (LOX IMVI): 2.95 µM | GI50 (A498): 2.77 µM | GI50 (RXF 393): 1.91 µM | GI50 (MCF7): 2.22 µM | GI50 (T47D): 5.45 µM | GI50 (SNB-75): 11.2 µM | GI50 (DU-145): 4.44 µM | GI50 [1]: 3.1 µM | GI50 (UACC-62): 5.15 µM | GI50 (NCI-H23): 5.24 µM | GI50 (SK-MEL-28): 3.1 µM | GI50 (KM12): 12.1 µM | GI50 (M14): 3.44 µM | GI50 (OVCAR-5): 6.36 µM | GI50 (K562): 3.06 µM | GI50 (Hs-578T): 20.4 µM | GI50 (U-251): 16.7 µM | GI50 (MDA-MB-231): 7.13 µM | GI50 (OVCAR-8): 3.37 µM | GI50 (SF-295): 14.7 µM | GI50 (ACHN): 2.64 µM | GI50 (NCI-H522): 1.5 µM | GI50 (SNB-19): 14 µM | GI50 (NCI-H226): 3.51 µM | GI50 (SK-OV-3): 26.8 µM | GI50 (SK-MEL-2): 13.1 µM | GI50 (COLO 205): 2.94 µM | GI50 (NCI-H460): 16 µM | GI50 (TK-10): 3.9 µM | GI50 (MOLT-4): 3.33 µM | GI50 (NCI/ADR-RES): 13.1 µM | GI50 (HCT-15): 1.7 µM | GI50 (HCC 2998): 11.5 µM | GI50 (HL-60(TB)): 3.16 µM | GI50 (786-0): 6.64 µM | GI50 (SK-MEL-5): 7.17 µM | GI50 (PC-3): 13 µM | GI50 (Malme-3M): 2.95 µM | GI50 (SW-620): 2.33 µM | GI50 (CAKI-1): 2.83 µM | GI50 (OVCAR-3): 4.32 µM | GI50 (UACC-257): 3.57 µM | GI50 (A549): 15.8 µM | CC50 [2]: 4.1 µM | GI50 (HT-29): 4.28 µM | GI50 (NCI-H322M): 17.6 µM | GI50 (MDA-MB-468): 1.06 µM | GI50 (SF-268): 13.2 µM | fold change (FC) [3]: 2 | GI50 (RPMI-8226): 4.74 µM
